According to patent US11591330B2, “HIF-2a small-molecule inhibitor and use thereof” (China Medical University, priority 2018, dated 2023):

Legend:
HIF-2α = target: T1, HIF-2α (Homo sapiens, UniProt Q99814); assay: Western blot analysis of HIF-2α expression in MCF-7 MS cells; type: cell-based; conditions: 48 h, FIG. 8
T1 construct: endogenous in cells; host or cells: MCF-7 MS (mammosphere / stem cell-like cells induced from human breast cancer MCF-7)
Procedure: (§1) The human breast cancer stem cell-like MCF7 MS cells were divided into control (Ctrl) group, PTX alone treatment group, ComA alone treatment group, and ComA combined with PTX treatment group, treated for 48 h, and then collected; the cells were washed twice with pre-cooled 1×PBS, and PBS was discarded; 100-200 μl RIPA cell lysis solution (RIPA cell lysis solution:Protease inhibitor cocktail=250:1) was added according to the amount of cells; the mixture was transferred to an EP tube for lysis on ice for 40-60 min, and centrifuged at 4° C. at 12000 rpm/min for 15 minutes; and the supernatant was taken and stored at −80° C. for later use.
(§2) Protein standard curve was prepared (in a 96-well plate), with the configuration system and absorbance shown in the table below, wherein the protein solution was placed at 37° C. and shaken for 30 min, the OD value was measured at 570 nm wavelength, and the protein standard curve was drawn: the abscissa being the standard protein content, and the ordinate being the absorbance value (OD value) under the 570 nm wavelength, thereby drawing a standard curve.
(§3) The samples were treated with 6× protein loading buffer. According to the quantified protein concentration, 30 μl:50 μg protein sample per well was loaded, the well was filled with PBS up to 30 μl when the sample was insufficient, and the samples were denatured in a metal bath at 100° C. for 10 min. […]

[1] = system: human breast cancer MCF-7 cells; assay: MTT/CCK8 cell proliferation analysis; type: cell-based
Procedure: (§4) MCF-7 and OVCAR-3 cells were taken out from liquid nitrogen, thawed in a water bath at 37° C., and centrifuged at 1000 rpm for 5 min, the supernatant was removed, 1 ml of DMEM medium with 10% fetal bovine serum was added to MCF-7 cells, the cell suspension was transferred into a 25 cm2 cells culture flask, and a medium with 10% fetal bovine serum was added for culture.
(§5) Well-growing human breast cancer MCF-7 cells, human breast cancer stem cell-like cell MCF-7 MS cells, human ovarian cancer OVCAR-3 cells, human ovarian cancer stem cell-like cell OVCAR-3 cells were taken, digested, resuspended, and inoculated in a 96-well plate with the number of cells per well being 5×10^3; after 24 hours of culture, different concentrations of ComA, ComA combined with PTX, or ComA combined with DDP were administrated for treating the cells for 48 hours, with 3 replicate wells for each concentration; 5 mg/ml of MTT/cck8 was added for treatment for 2 h, followed by shaking for 10 min in a shaker; the absorbance at 570 nm (for measuring MTT)/450 nm (for measuring CCK8) was measured with a microplate reader, the inhibition rate was calculated according to the formula: inhibition rate %=[1−(dosing well-zero adjustment well)/(control well-zero adjustment well)]*100%; IC50 was calculated with SPSS16.0 software, and the experiment was repeated three times.

[2] = system: human ovarian cancer OVCAR-3 cells; assay: MTT/CCK8 cell proliferation analysis; type: cell-based; conditions: MTT/cck8, FIG. 5
Procedure: as §4, §5

HIF-1α = assay: Western blot analysis of HIF-1α expression in MCF-7 MS cells; type: cell-based, human; conditions: 48 h, FIG. 8
Procedure: as §1, §2, §3

[3] = system: human breast cancer stem cell-like MCF-7 MS cells; assay: MTT/CCK8 cell proliferation analysis; type: cell-based
Procedure: (§6) When MCF-7 or OVCAR-3 cells grew to 70%-80%, the medium was discarded, PBS was added for washing 3 times, and trypsin was added for digestion for 1 min; the DMEM medium containing 10% fetal calf serum was added to stop the digestion, centrifuged at 1000 rpm for 5 min, the supernatant was discarded, PBS was added to resuspend cells, centrifuged at 1000 rpm for 5 min, the supernatant was discarded, 2 ml DMEM-F12 conditioned medium was added to resuspend cells, and the cells were cultured in suspension at 37° C., 5% CO2 in a constant-humidity environment.
as §5

[4] = system: human ovarian cancer stem cell-like OVCAR-3 MS cells; assay: MTT/CCK8 cell proliferation analysis; type: cell-based
Procedure: as §6, §5

T1 sequence (Q99814 whole entry): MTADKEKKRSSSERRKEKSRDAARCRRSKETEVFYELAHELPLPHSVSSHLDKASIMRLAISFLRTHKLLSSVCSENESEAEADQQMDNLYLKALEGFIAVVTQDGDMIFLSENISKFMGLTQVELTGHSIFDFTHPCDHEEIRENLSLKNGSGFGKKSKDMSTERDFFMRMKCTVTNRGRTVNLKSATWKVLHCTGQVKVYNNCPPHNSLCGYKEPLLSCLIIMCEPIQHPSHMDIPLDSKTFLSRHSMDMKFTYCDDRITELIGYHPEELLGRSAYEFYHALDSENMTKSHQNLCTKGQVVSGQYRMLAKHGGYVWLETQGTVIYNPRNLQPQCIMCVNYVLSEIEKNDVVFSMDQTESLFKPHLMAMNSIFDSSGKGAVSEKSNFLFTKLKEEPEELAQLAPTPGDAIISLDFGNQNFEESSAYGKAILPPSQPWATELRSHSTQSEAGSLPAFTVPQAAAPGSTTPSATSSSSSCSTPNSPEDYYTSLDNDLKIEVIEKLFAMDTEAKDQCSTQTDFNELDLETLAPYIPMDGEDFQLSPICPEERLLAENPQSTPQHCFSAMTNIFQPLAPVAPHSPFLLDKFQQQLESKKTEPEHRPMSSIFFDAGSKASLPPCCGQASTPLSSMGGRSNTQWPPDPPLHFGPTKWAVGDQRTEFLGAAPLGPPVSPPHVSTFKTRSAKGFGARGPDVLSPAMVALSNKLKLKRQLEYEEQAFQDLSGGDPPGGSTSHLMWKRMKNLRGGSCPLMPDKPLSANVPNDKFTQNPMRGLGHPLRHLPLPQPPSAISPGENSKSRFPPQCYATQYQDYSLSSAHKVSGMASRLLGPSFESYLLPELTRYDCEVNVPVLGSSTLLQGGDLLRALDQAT

With `Cc1ccn2c(=O)cc(CN(Cc3ccccc3)Cc3ccco3)nc2c1` [ComA] the “expression of HIF-2α” value (HIF-2α; ComA alone) was “obviously inhibited the expression of HIF-2α”, the “expression of HIF-2α” value (HIF-2α; ComA combined with PTX) was “obviously inhibited the expression of HIF-2α” and the “inhibitory activity on proliferation” value ([1]; MCF-7 cells, MTT/cck8, FIG. 4) was “obvious inhibitory activity”. The “time dependence of anti-tumor cell and anti-tumor stem cell activity” value ([1]; stated for tumor cells and tumor stem cells together) was “obviously time-dependent”, the “inhibitory activity on proliferation” value [2] was “obvious inhibitory activity” and the “expression of HIF-1α” value (HIF-1α) was “no obvious inhibitory effect”. The “enhancement of the inhibitory effect of paclitaxel (PTX)” value ([3]; ComA combined with PTX, 48 hours, FIG. 6) was “can enhance the inhibitory effect”, the “inhibitory activity on proliferation” value ([3]; MTT/cck8, FIG. 4) was “obvious inhibitory activity” and the “enhancement of the inhibitory effect of cisplatin (DDP)” value ([4]; ComA combined with DDP, 48 hours, FIG. 7) was “can enhance the inhibitory effect”. The “inhibitory activity on proliferation” value ([4]; MTT/cck8, FIG. 5) was “obvious inhibitory activity”.
